PubChem BioAssay AID1259332 (Broad Institute, 2017)
Active and inactive are the calls of the source. The rule behind the calls is not given here.

experiment: CD40 pathway inhibition in B cells – B cell lineage, dose response (AID 1259332); conditions: B cell line, CD40 signaling inhibition reporter; at 0.38 µM (top of the series);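 note: cells stimulated with CD40 ligand tCD40L; 0% = neutral control wells and -100% = positive control wells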

Row | SMILES | activity change, negative = inhibition
1 | c1ccc(CCSc2nccn2-c2ccccc2)cc1 | 36.4% (inactive)

same assay, conditions: B cell line, CD40 signaling inhibition reporter; at 1.1 µM (top of the series)

Row | SMILES | activity change, negative = inhibition
2 | CO[C@@H](CN(C)S(=O)(=O)c1ccc(Cl)cc1)[C@H](C)CN(Cc1ccccc1Cl)[C@@H](C)CO | 0.243% (inactive)

same assay, conditions: B cell line, CD40 signaling inhibition reporter; at 3.5 µM (top of the series)

Row | SMILES | activity change, negative = inhibition
3 | CCCNC(=O)N1[C@H](C#N)[C@@H](c2ccc(-c3cccc(OC)c3)cc2)[C@H]1CO | 1.94% (inactive)
4 | N#C[C@H]1[C@H](c2ccc(C#CC3CCCCC3)cc2)[C@@H](CO)N1C(=O)Nc1ccc(F)cc1 | -2.23% (inactive)
5 | c1cncc(C2=NCCC2)c1 | -2.83% (inactive)
6 | C[C@H](CO)N1C[C@H](C)[C@H](CN(C)CC2CCCCC2)Oc2ccc(NC(=O)Nc3ccc(C(F)(F)F)cc3)cc2C1=O | 4.59% (inactive)

same assay, conditions: B cell line, CD40 signaling inhibition reporter; at 10 µM (top of the series)

Row | SMILES | activity change, negative = inhibition
7 | CC(=O)c1cc(-c2ccccc2)n(CC(=O)NCc2cccs2)c1C | -1.07% (inactive)
8 | Fc1ccccc1/C=C1\CCCC2=C1Nc1nnnn1C2c1ccccc1F (stereo not drawn) | -1.53% (inactive)
9 | NS(=O)(=O)c1cc2c(cc1C(F)(F)F)NC(Cc1ccccc1)NS2(=O)=O (stereo not drawn) | 5.72% (inactive)
10 | COc1ccc2c3c(n(C)c2c1)[C@H](CO)N(C(=O)Nc1ccc(F)cc1)CC31CCN(C(=O)c2ccc3c(c2)OCO3)CC1 | 7.94% (inactive)
11 | COc1ccc(S(=O)(=O)N(C)C[C@@H]2Oc3ccc(NC(=O)Nc4ccc(C(F)(F)F)cc4)cc3C(=O)N([C@@H](C)CO)C[C@@H]2C)cc1 | 8.35% (inactive)
12 | CCCCC1C(=O)NC(=S)N(C)C1=O (stereo not drawn) | 11.5% (inactive)
13 | COc1ccc(NC(=O)O/N=C/c2c(C)nn(C(C)(C)C)c2C)cc1 | 13.9% (inactive)
14 | CC(=O)Nc1ccc(S(=O)(=O)c2ccc(N)cc2)cc1 | 0.776% (inactive)
15 | COc1cccc(S(=O)(=O)N(C)C[C@@H]2OCc3ccccc3-c3c(n(C)c4ccccc34)C(=O)N([C@@H](C)CO)C[C@@H]2C)c1 | 8.02% (inactive)
16 | O=C(NCc1ccccn1)C1CCCN(S(=O)(=O)c2ccccc2)C1 (stereo not drawn) | 8.97% (inactive)
17 | C[C@@H]1CN([C@H](C)CO)C(=O)c2c(c3ccccc3n2C)-c2ccccc2CO[C@H]1CN(C)C(=O)Nc1ccccc1C(F)(F)F | -0.491% (inactive)
18 | Cc1ccc2c(c1)C(O)(CC(=O)/C=C/C=C/c1ccccc1)C(=O)N2 (stereo not drawn) | -5.49% (inactive)
